The source made the active and inactive calls. The rule behind the calls is not given here.
What was measured:
HEK-293T [1] = test: Cytotoxicity against HEK293T cells after 72 hrs by MTT assay; assay type: cell-based; settings: Homo sapiens
[2] = Anticancer against mouse B16F10 cells after 72 hrs by MTT assay; assay type: functional, cell-based; settings: B16-F10, 72 h
CHO [3] = test: Cytotoxicity against CHO cells after 72 hrs by MTT assay; assay type: cell-based; settings: Cricetulus griseus
[4] = Cytotoxicity against mouse fibroblasts after 72 hrs by MTT assay; assay type: cell-based; settings: Fibroblast
MCF7 [5] = test: Anticancer against human MCF7 cells after 72 hrs by MTT assay; assay type: functional, cell-based; settings: MCF7, 72 h
A549 = test: Anticancer against human A549 cells after 72 hrs by MTT assay; assay type: functional, cell-based; settings: A549, 72 h
B16-F10 [6] = test: Antitumor activity against mouse B16F10 cells xenografted in C57BL/6 mouse assessed as apoptotic regions at 20 mg/kg, ip measured after 24 days of tumor inoculation by TUNEL assay; assay type: functional, organism-based; set-up: dose 20 mg/kg
B16-F10 [7] = test: Antitumor activity against mouse B16F10 cells xenografted in C57BL/6 mouse assessed as apoptotic regions at 20 mg/kg, ip measured after 24 days of tumor inoculation by VE-cadherin; assay type: functional, organism-based; set-up: dose 20 mg/kg
B16-F10 [8] = test: Cytotoxicity against mouse B16F10 cells assessed as cell viability after 48 hrs by flow cytometry in presence of RU-486 GR antagonist; assay type: functional, cell-based
B16-F10 [9] = test: Induction of apoptosis in mouse B16F10 cells assessed as late apoptotic cells at 10 uM after 48 hrs using FITC-annexin V-FITC/propidium iodide by flow cytometry (reference value: 2.5%); assay type: functional
B16-F10 [10] = test: Antitumor activity against mouse B16F10 cells xenografted in C57BL/6 mouse assessed as down-regulation of p-Mdm2 in tumor at 20 mg/kg, ip measured after 24 days of tumor inoculation by Western blot analysis; assay type: functional, organism-based; set-up: dose 20 mg/kg
MCF7 [11] = test: Induction of apoptosis in human MCF7 cells assessed as necrotic cells at 10 uM after 48 hrs using FITC-annexin V-FITC/propidium iodide by flow cytometry (reference value: 7.1%); assay type: functional
MCF7 [12] = test: Induction of apoptosis in human MCF7 cells assessed as early apoptotic cells at 10 uM after 48 hrs using FITC-annexin V-FITC/propidium iodide by flow cytometry (reference value: 3%); assay type: functional
B16-F10 [13] = test: Induction of apoptosis in mouse B16F10 cells assessed as up-regulation of Smac/Diablo at 10 uM after 48 hrs by Western blot analysis; assay type: functional, cell-based
CHO [14] = test: Induction of apoptosis in CHO cells assessed as early apoptotic cells at 10 uM after 48 hrs using FITC-annexin V-FITC/propidium iodide by flow cytometry (reference value: 0.1%); assay type: cell-based, Cricetulus griseus; settings: chinese hamster
B16-F10 [15] = test: Induction of apoptosis in mouse B16F10 cells assessed as up-regulation of caspase 7 at 10 uM after 48 hrs by Western blot analysis; assay type: functional, cell-based
B16-F10 [16] = test: Induction of apoptosis in mouse B16F10 cells assessed as early apoptotic cells at 10 uM after 48 hrs using FITC-annexin V-FITC/propidium iodide by flow cytometry (reference value: 0.7%); assay type: functional
CHO [17] = test: Induction of apoptosis in CHO cells assessed as necrotic cells at 10 uM after 48 hrs using FITC-annexin V-FITC/propidium iodide by flow cytometry (Rvb =6.6%); assay type: cell-based, Cricetulus griseus; settings: chinese hamster
B16-F10 [18] = test: Induction of apoptosis in mouse B16F10 cells assessed as down-regulation of JAK3/STAT3 at 10 uM after 48 hrs by Western blot analysis; assay type: functional, cell-based
B16-F10 [19] = test: Antitumor activity against mouse B16F10 cells xenografted in C57BL/6 mouse assessed as reduction in angiogenesis in tumor measured as VEGRF2 expression at 20 mg/kg, ip measured after 24 days of tumor inoculation by microscopy relative to untreated control; assay type: functional, organism-based; set-up: dose 20 mg/kg
B16-F10 [20] = test: Induction of apoptosis in mouse B16F10 cells assessed as viable cells at 10 uM after 48 hrs using FITC-annexin V-FITC/propidium iodide by flow cytometry (reference value: 95.1%); assay type: functional; settings: B16-F10, 48 h, read-out: Activity
HEK-293T [21] = test: Induction of apoptosis in HEK293T cells assessed as late apoptotic cells at 10 uM after 48 hrs using FITC-annexin V-FITC/propidium iodide by flow cytometry (reference value: 0.4%); assay type: cell-based; settings: human
B16-F10 [22] = test: Induction of apoptosis in mouse B16F10 cells assessed as p53 up-regulation at 10 uM after 48 hrs by flow cytometry; assay type: functional, cell-based
MCF7 [23] = test: Induction of apoptosis in human MCF7 cells assessed as late apoptotic cells at 10 uM after 48 hrs using FITC-annexin V-FITC/propidium iodide by flow cytometry (reference value: 3.5%); assay type: functional
[24] = Induction of apoptosis in CHO cells assessed as viable cells at 10 uM after 48 hrs using FITC-annexin V-FITC/propidium iodide by flow cytometry (reference value: 93.3%); assay type: cell-based, Cricetulus griseus; settings: chinese hamster, read-out: Activity
MCF7 [25] = test: Induction of apoptosis in human MCF7 cells assessed as viable cells at 10 uM after 48 hrs using FITC-annexin V-FITC/propidium iodide by flow cytometry (reference value: 86.4%); assay type: functional; settings: MCF7, 48 h, read-out: Activity
B16-F10 [26] = test: Induction of apoptosis in mouse B16F10 cells assessed as caspase 9 activation at 10 uM after 48 hrs by Western blot analysis; assay type: functional, cell-based
B16-F10 [27] = test: Antitumor activity against mouse B16F10 cells xenografted in C57BL/6 mouse assessed as inhibition tumor growth at 20 mg/kg, ip measured after 24 days of tumor inoculation; assay type: functional, organism-based; set-up: dose 20 mg/kg
B16-F10 [28] = test: Cytotoxicity against mouse B16F10 cells transfected with GR-siRNA assessed as cell viability after 48 hrs by flow cytometry; assay type: functional, cell-based
CHO [29] = test: Induction of apoptosis in CHO cells assessed as late apoptotic cells at 10 uM after 48 hrs using FITC-annexin V-FITC/propidium iodide by flow cytometry (reference value: 0%); assay type: cell-based, Cricetulus griseus; settings: chinese hamster
MCF7 [30] = test: Cytotoxicity against human MCF7 cells transfected with GR-siRNA assessed as cell viability after 48 hrs by flow cytometry; assay type: functional, cell-based
B16-F10 [31] = test: Induction of apoptosis in mouse B16F10 cells assessed as caspase 3 activation at 10 uM after 48 hrs by Western blot analysis; assay type: functional, cell-based
B16-F10 [32] = test: Induction of apoptosis in mouse B16F10 cells assessed as increase in ratio of BAX/Bcl2 expression at 10 uM after 48 hrs by Western blot analysis relative to untreated control; assay type: functional, cell-based
B16-F10 [33] = test: Induction of apoptosis in mouse B16F10 cells assessed as necrotic cells at 10 uM after 48 hrs using FITC-annexin V-FITC/propidium iodide by flow cytometry (reference value: 1.7%); assay type: functional
[34] = Induction of apoptosis in HEK293T cells assessed as viable cells at 10 uM after 48 hrs using FITC-annexin V-FITC/propidium iodide by flow cytometry (reference value: 98.6%); assay type: cell-based, HEK-293T; settings: human, read-out: Activity
B16-F10 [35] = test: Induction of apoptosis in mouse B16F10 cells assessed as down-regulation of XIAP at 10 uM after 48 hrs by Western blot analysis; assay type: functional, cell-based
B16-F10 [36] = test: Induction of apoptosis in mouse B16F10 cells assessed as Akt destruction at 10 uM after 48 hrs by Western blot analysis; assay type: functional, cell-based
B16-F10 [37] = test: Antitumor activity against mouse B16F10 cells xenografted in C57BL/6 mouse assessed as up-regulation of P53 in tumor at 20 mg/kg, ip measured after 24 days of tumor inoculation by Western blot analysis; assay type: functional, organism-based; set-up: dose 20 mg/kg
HEK-293T [38] = test: Induction of apoptosis in HEK293T cells assessed as necrotic cells at 10 uM after 48 hrs using FITC-annexin V-FITC/propidium iodide by flow cytometry (reference value: 0.7%); assay type: cell-based; settings: human
HEK-293T [39] = test: Induction of apoptosis in HEK293T cells assessed as early apoptotic cells at 10 uM after 48 hrs using FITC-annexin V-FITC/propidium iodide by flow cytometry (reference value: 0.3%); assay type: cell-based; settings: human

| SMILES | IC50 (HEK-293T [1]) [µM] | IC50 [2] [µM] | IC50 (CHO [3]) [µM] | IC50 [4] [µM] | IC50 (MCF7 [5]) [µM] | IC50 (A549) [µM] | Activity (B16-F10 [6]) | Activity (B16-F10 [7]) | Activity (B16-F10 [9]) [%] | Activity (MCF7 [11]) [%] | Activity (MCF7 [12]) [%] | Activity (CHO [14]) [%] | Activity (B16-F10 [16]) [%] | Activity (CHO [17]) [%] | viability at 10 µM (B16-F10 [20]) [%] | Activity (HEK-293T [21]) [%] | Activity (MCF7 [23]) [%] | viability at 48 h, 10 µM [24] [%] | viability at 10 µM (MCF7 [25]) [%] | inhibition (B16-F10 [27]) | further results |
| --- | --- | --- | --- | --- | --- | --- | --- | --- | --- | --- | --- | --- | --- | --- | --- | --- | --- | --- | --- | --- | --- |
| CCCCCCCCCCCCCCCC[N+](C)(CCCCCCCCCCCCCCCC)CCNC(=O)[C@@]1(O)[C@H](C)C[C@H]2[C@@H]3CCC4=CC(=O)C=C[C@]4(C)[C@@]3(F)[C@@H](O)C[C@@]21C | > 20 | > 15 | > 15 | > 15 | > 15 | 14.8 |  |  |  |  |  |  |  |  |  |  |  |  |  |  |  |
| CCCC[N+](C)(CCCC)CCNC(=O)[C@@]1(O)[C@H](C)C[C@H]2[C@@H]3CCC4=CC(=O)C=C[C@]4(C)[C@@]3(F)[C@@H](O)C[C@@]21C | > 15 | > 20 | > 20 | > 20 | > 15 | > 15 |  |  |  |  |  |  |  |  |  |  |  |  |  |  |  |
| CCCCCCCC[N+](C)(CCCCCCCC)CCNC(=O)[C@@]1(O)[C@H](C)C[C@H]2[C@@H]3CCC4=CC(=O)C=C[C@]4(C)[C@@]3(F)[C@@H](O)C[C@@]21C.[Cl-] | > 15 | 6 | > 15 | > 15 | 6.5 | 7.2 | Active | inactive | 12.5 | 13.1 | 18.6 | 0 | 27 | 5.9 | 58 | 0.1 | 7.8 | 94.1 | 61.5 | Active | Activity (B16-F10 [8]): inactive; Activity (B16-F10 [10]): Active; Activity (B16-F10 [13]): Active; Activity (B16-F10 [15]): Active; Activity (B16-F10 [18]): Active; inhibition (B16-F10 [19]): Active; Activity (B16-F10 [22]): Active; Activity (B16-F10 [26]): Active; Activity (B16-F10 [28]): inactive; Activity (CHO [29]): 0%; Activity (MCF7 [30]): inactive; Activity (B16-F10 [31]): Active; Activity (B16-F10 [32]): Active; Activity (B16-F10 [33]): 2.5%; viability at 48 h, 10 µM [34]: 99.3%; Activity (B16-F10 [35]): Active; Activity (B16-F10 [36]): Active; Activity (B16-F10 [37]): Active; Activity (HEK-293T [38]): 0.5%; Activity (HEK-293T [39]): 0.1% |
| CCCCCCCCCCCC[N+](C)(CCCCCCCCCCCC)CCNC(=O)[C@@]1(O)[C@H](C)C[C@H]2[C@@H]3CCC4=CC(=O)C=C[C@]4(C)[C@@]3(F)[C@@H](O)C[C@@]21C | > 15 | > 15 | > 20 | > 15 | 13.5 | 14 |  |  |  |  |  |  |  |  |  |  |  |  |  |  |  |
| CC[N+](C)(CC)CCNC(=O)[C@@]1(O)[C@H](C)C[C@H]2[C@@H]3CCC4=CC(=O)C=C[C@]4(C)[C@@]3(F)[C@@H](O)C[C@@]21C | > 20 | > 20 | > 15 | > 20 | > 15 | > 15 |  |  |  |  |  |  |  |  |  |  |  |  |  |  |  |
| C[C@@H]1C[C@H]2[C@@H]3CCC4=CC(=O)C=C[C@]4(C)[C@@]3(F)[C@@H](O)C[C@]2(C)[C@@]1(O)C(=O)CO [DEXAMETHASONE] | > 20 | > 20 | > 20 | > 15 | > 15 | > 15 | Active | Active | 3.7 | 9.5 | 2.4 | 0 | 0.8 | 4.2 | 94.1 | 0.1 | 5.9 | 95.8 | 82.8 | Active | Activity (CHO [29]): 0%; Activity (B16-F10 [32]): Active; Activity (B16-F10 [33]): 1.3%; viability at 48 h, 10 µM [34]: 94.4%; Activity (HEK-293T [38]): 0.4%; Activity (HEK-293T [39]): 0.1% |
